Data on 8 compounds can be found in patent US4021563A, “Method of treating cardiac arrhythmia with γ-piperidino-butyrophenones” (priority 1975, dated 1977).

Entries after “also recorded” stand apart in the source; their conditions may differ. Counter-ions that a name gives are not always drawn.

The test system of data set [1] is ouabain-induced arrhythmias. The data set can be described thus: ouabain-induced arrhythmia in conscious rabbits, prophylactic effect. Type of data set: in vivo, rabbit. The following applies: for arrhythmogenic dose of ouabain increased to more than 110 %, number of rabbits: 1 minute before ouabain; for arrhythmogenic dose of ouabain in % of control arrhythmogenic dose, m ± SD: physiol. saline 96 ± 14; for antiarrhythmic activity compared with clinically used drugs: prophylactic and curative effect. From the text: (§1) Thus, acid-addition salts formed by admixture of a γ-piperidino-butyrophenone base with an equivalent of an acid, suitably in a neutral solvent, are formed with such acids as sulfuric, phosphoric, hydrochloric, hydrobromic, citric, lactic, tartaric, acetic, and related acids. For purposes of this invention, the substituted γ-piperidino-butyrophenones are equivalent to their non-toxic acid-addition salts. The antiarrhythmic activity of the compounds of the present invention compared with that of some clinically used antiarrhythmic drugs was determined as follows.
(§2) Intravenous infusion of ouabain to conscious rabbits produces ventricular arrhythmias of short duration. An increase in the minimal dose of ouabain required to produce an arrhythmia may be taken as a measure of the antiarrhythmic action of the drug.
In all experiments with drug treatment the control dose of ouabain required to produce arrhythmias in an animal was obtained the day before.
The test compound was administered intravenously to rabbits 1 minute before the ouabain challenge, and the arrhythmogenic dose of ouabain after treatment was evaluated in percent of the control arrhythmogenic dose. If this dose amounts to more the 110 % of the control arrhythmogenic dose recorded the day before, the test compound is regarded as having antiarrhymic activity.

The test system of data set [2] is ouabain-induced arrhythmia. Description: ouabain-induced arrhythmia in conscious rabbits, curative effect (reversal). Type of data set: in vivo, rabbit. The following applies: reversal at least 1 min within 10 minutes.
Source text: as §1, §2
A substance was considered curative, if it was able to reverse the ouabain-induced arrhythmia for at least 1 min. within 10 minutes after the injection.

A further data set concerns cardiac arrhythmia. As to conditions: cited from earlier work.
Data set [3] in a line: toxic effects of active doses in antiarrhythmic tests.
Source text: as §1, with “follows. The compounds were tested for their ability to prevent and reverse ouabain-induced arrhythmias in conscious rabbits, and the method used was essentially according to Basil et al. (Brit. J. Pharmacol. 1974, 50, 323- 33).” for “follows.”

In data set [4] the test system is ouabain-induced ventricular tachycardia and fibrillation. As to conditions: anaesthetized guinea pigs, effective dosage; cited from earlier work.
In data set [5] the test system is arrhythmia induced by aconitine. The following applies: in vivo; cited from earlier work.
The test system of data set [6] is cardiac effects of catecholamines. As to conditions: Tuck 1973; Petersen 1974; cited from earlier work.
In data set [7] the test system is ventricular extrasystoles (VES). The data set can be described thus: double-blind clinical test, ventricular extrasystoles in coronary care unit patients. The data set is classed as in vivo, human patients. The procedure:
All patients with ventricular extrasystoles (VES) admitted to a coronary care unit suspected of having acute myocardial infarction are included in the investigation. This was carried out in a double-blind manner with metylperone against placebo (metylperone injectable without metylperone). When a patient arrives at the unit, they are monitored on an oscilloscope for registration of the electrocardiogram (ECG). In a 1 hour long period of observation the patient is characterized in respect to the type and the frequency of the arrhythmia. Depending on this and on the estimated age of the infarction, the patient is distributed to one of four groups. A bottle (metylperone or placebo) is chosen from a box, containing identical bottles, and in the following 10 minutes a total of 50 mg metylperone (or placebo) is injected intravenously as 5 injections with 2 min. intervals. The ECG registration is continued for 2 hours. All ECGes in the three hours period are analyzed manually and the arrhythmias are recorded according to frequency and type. The psychic status and the cardiovascular status are checked several times during the three hours.

The next data set concerns ventricular arrhythmia. Description: intravenous metylperone in patients with myocardial infarction, ventricular arrhythmia and side effects. The data set is classed as in vivo, human patients. The text has this: Equi-antiarrhythmic doses of previously used drugs produce various cardiovascular side effects as well as agitation and confusion.
A further data set is described as follows: tranquilizing effect. The following applies: in vivo.
Data set [8] deals with arrhythmia induced by aconitine. The data set can be described thus: aconitine-induced arrhythmia. Type of data set: in vivo. As to conditions: 0.1-10.0 mg/kg.

As for `CC(C)NCC(O)COc1cccc2ccccc12` (stereo not shown) [Propranolol, propranolol], the “arrhythmogenic dose of ouabain increased to more than 110 %, number of rabbits” value in data set [1] (0.5 mg/kg i.v., 4 rabbits) was 2 number of rabbits; in data set [1] (2.0 mg/kg i.v., 4 rabbits), 3 number of rabbits. Moreover, the “arrhythmogenic dose of ouabain in % of control arrhythmogenic dose, m ± SD” value (shortened to “arrhythmogenic dose of ouabain in % … m ± SD”) in [1] (0.5 mg/kg i.v.) is 98 ± 28 % of control arrhythmogenic do; in data set [1] (2.0 mg/kg i.v.), 121 ± 26 % of control arrhythmogenic do. For the same compound, the “curative effect, number of rabbits reversed/tested” value is recorded as 1/5 in data set [2] (0.5 mg/kg i.v.) and 4/4 in [2] (2.0 mg/kg i.v.). Besides, in the data set on cardiac arrhythmia, the “antiarrhythmic properties / activity of prior art compounds” value (“antiarrhythmic properties / activity” for short) was “activity as antiarrhythmic agents”. In addition, the “toxic effects of prior art antiarrhythmic drugs” value with cardiac arrhythmia is given as “various toxic effects”.

Regarding `CCN(CC)CCNC(=O)c1ccc(N)cc1` [Procainamide, procainamide], the “arrhythmogenic dose of ouabain increased to more than 110 %, number of rabbits” value was 2 number of rabbits in data set [1] (1.0 mg/kg i.v., 4 rabbits) and 1 number of rabbits in data set [1] (10.0 mg/kg i.v., 4 rabbits). Besides, the “arrhythmogenic dose of ouabain in % … m ± SD” value in data set [1] (1.0 mg/kg i.v.) is 111 ± 18 % of control arrhythmogenic do; in [1] (10.0 mg/kg i.v.), 104 ± 20 % of control arrhythmogenic do. For the same compound, the entries for the “curative effect, number of rabbits reversed/tested” value in data set [2] (1.0 mg/kg i.v.) and in data set [2] (10.0 mg/kg i.v.) were 0/4 and 2/4, respectively. Also, in the data set with cardiac arrhythmia, the “antiarrhythmic properties / activity” value is reported as “activity as antiarrhythmic agents”. The “toxic effects of prior art antiarrhythmic drugs” value in the data set with cardiac arrhythmia is “various toxic effects”.

`CCCC1(CC)CCN(CCCC(=O)c2ccc(F)cc2)CC1` [FG 5226, 4-fluoro-γ-(4-ethyl-4-n-propyl-piperidino)-butyrophenone]: the “arrhythmogenic dose of ouabain increased to more than 110 %, number of rabbits” value is given as 3 number of rabbits in data set [1] (0.1 mg/kg i.v., 4 rabbits) and 1 number of rabbits in [1] (1.0 mg/kg i.v., 4 rabbits). The “arrhythmogenic dose of ouabain in % … m ± SD” value is given as 109 ± 21 % of control arrhythmogenic do in data set [1] (0.1 mg/kg i.v.) and 93 ± 18 % of control arrhythmogenic do in [1] (1.0 mg/kg i.v.). Further, the “antiarrhythmic activity compared with clinically used drugs” value in data set [1] (0.1 mg/kg i.v.) was “more effective than lidocaine 1-5 mg/kg, procainamide 1- 10 mg/kg, quinidine 1 mg/kg, and propranolol 0.5 mg/kg; also recorded: equiactive (i.e., equally active) with quinidine 10 mg/kg, and propranolol 2 mg/kg”. Moreover, the “curative effect, number of rabbits reversed/tested” value in data set [2] (0.1 mg/kg i.v.) is recorded as 3/4; in data set [2] (1.0 mg/kg i.v.), 2/4. The “toxic effects of the active doses” value in data set [3] (active antiarrhythmic doses) was “In contrast to metylperone and FG 5226 the active doses of the known antiarrhythmic drugs produced various toxic effects”.

For `C=C[C@H]1C[N@@]2CC[C@H]1C[C@@H]2[C@@H](O)c1ccnc2ccc(OC)cc12` [Quinidine, quinidine], the “arrhythmogenic dose of ouabain increased to more than 110 %, number of rabbits” value in [1] (1.0 mg/kg i.v., 4 rabbits) was 2 number of rabbits; in [1] (10.0 mg/kg i.v., 4 rabbits) it was 3 number of rabbits. Also, the entries for the “arrhythmogenic dose of ouabain in % … m ± SD” value in data set [1] (1.0 mg/kg i.v.) and in data set [1] (10.0 mg/kg i.v.) were 104 ± 10 % of control arrhythmogenic do and 131 ± 42 % of control arrhythmogenic do, respectively. For the same compound, the figures for the “curative effect, number of rabbits reversed/tested” value in data set [2] (1.0 mg/kg i.v.) and in data set [2] (10.0 mg/kg i.v.) were 2/4 and 4/4, respectively. Also, in the data set on cardiac arrhythmia, the “antiarrhythmic properties / activity” value is “activity as antiarrhythmic agents”. In the data set with cardiac arrhythmia, the “toxic effects of prior art antiarrhythmic drugs” value is given as “various toxic effects”.

Regarding `CCN(CC)CC(=O)Nc1c(C)cccc1C` [Lidocaine, lidocaine], the “arrhythmogenic dose of ouabain increased to more than 110 %, number of rabbits” value in data set [1] (1.0 mg/kg i.v., 4 rabbits) is 0 number of rabbits; in data set [1] (5.0 mg/kg i.v., 5 rabbits), 0 number of rabbits. The “arrhythmogenic dose of ouabain in % … m ± SD” value in data set [1] (1.0 mg/kg i.v.) is on record as 73 ± 25 % of control arrhythmogenic do; in data set [1] (5.0 mg/kg i.v.), 91 ± 21 % of control arrhythmogenic do. Also, the “curative effect, number of rabbits reversed/tested” value in [2] (1.0 mg/kg i.v.) is given as 1/3; in data set [2] (5.0 mg/kg i.v.), 2/4.

As for `NC(=O)OC1CCN(CCCC(=O)c2ccc(F)cc2)C2CCCCC12` (stereo not shown) [L 7810], the “antagonism of ouabain-induced ventricular tachycardia and fibrillation” value in [4] was 0.3 to 3 mg/kg. Moreover, in [5], the “inhibition of arrhythmia induced by aconitine” value is listed as “inhibit arrhythmia induced by aconitine”. Besides, the “antiarrhythmic properties / activity” value in the data set on cardiac arrhythmia is “exert antiarrhythmic properties”.

On to `CN(C)CCCN1c2ccccc2Sc2ccc(Cl)cc21` [chlorpromazine], for which the potentiation of catecholamines entry in [6] was “potentiation of catecholamines”.

On to `CC1CCN(CCCC(=O)c2ccc(F)cc2)CC1` [Metylperone, 4-fluoro-γ-(4-methyl-piperidino)-butyrophenone hydrochloride], for which the “activity against ouabain-induced ventricular tachycardia in conscious rabbits” value in [1] (0.1 mg/kg) is “extremely active”. The “arrhythmogenic dose of ouabain increased to more than 110 %, number of rabbits” value in [1] (0.1 mg/kg i.v., 4 rabbits) is 3 number of rabbits; in data set [1] (1.0 mg/kg i.v., 4 rabbits), 3 number of rabbits. The “arrhythmogenic dose of ouabain in % … m ± SD” value in data set [1] (0.1 mg/kg i.v.) is on record as 129 ± 20 % of control arrhythmogenic do; in data set [1] (1.0 mg/kg i.v.), 126 ± 30 % of control arrhythmogenic do. The “antiarrhythmic activity compared with clinically used drugs” value in data set [1] (0.1 mg/kg i.v., hydrochloride) was “more effective than lidocaine 1-5 mg/kg, procainamide 1- 10 mg/kg, quinidine 1 mg/kg, and propranolol 0.5 mg/kg; also recorded: equiactive (i.e., equally active) with quinidine 10 mg/kg, and propranolol 2 mg/kg”. The “curative effect, number of rabbits reversed/tested” value in [2] (0.1 mg/kg i.v.) and in data set [2] (1.0 mg/kg i.v.) was 5/5 throughout. Moreover, the “antiarrhythmic effect in patients with acute myocardial infarction” value in [7] (50 mg i.v.) was “has an antiarrhythmic effect in patients with acute myocardial infarction”. In addition, the “mean total VES ± SD, 0 - 60 min. after inj.” value is listed as 212 ± 138 in [7] (AMI patients, N = 6, 50 mg i.v., placebo 418 ± 394) and 251 ± 85 in data set [7] (not AMI patients, N = 2, 50 mg i.v., placebo 643 ± 290). Also, the “mean total VES ± SD, 61 - 120 min. after inj.” value is 93 ± 89 in [7] (AMI patients, N = 6, 50 mg i.v., placebo 644 ± 815) and 348 ± 28 in data set [7] (not AMI patients, N = 2, 50 mg i.v., placebo 695 ± 240). Also, the “mean total VES ± SD, control hour” value was found to be 372 ± 148 in data set [7] (AMI patients, N = 6, before injection (baseline)) and 321 ± 18 in data set [7] (not AMI patients, N = 2, before injection (baseline)). The “side effects during treatment of cardiac arrhythmia” value with ventricular arrhythmia (human, in vivo) is “lack of side effects”. Besides, the “side effects in patients” value in the data set on ventricular arrhythmia (human, in vivo, iv) was “without producing side effects”. In addition, the “inhibition of ventricular arrhythmia in patients with myocardial infarction” value in the data set on ventricular arrhythmia (intravenous injection 10-50 mg) is given as “inhibit ventricular arrhythmia in patients with myocardial infarction”. The “toxic effects of the active doses” value in data set [3] (in vivo) is “In contrast to metylperone and FG 5226 the active doses of the known antiarrhythmic drugs produced various toxic effects”. For the same compound, in the data set “tranquilizing effect”, the tranquilizing effect result is on record as “has a tranquilizing effect”. The aconitine inhibitory effect entry in [8] is given as “no aconitine inhibitory effect”. For the same compound, the potentiation of catecholamines entry in data set [6] is reported as “does not potentiate the cardiac effects of catecholamines”.
